The record followed here is ChEMBL document CHEMBL3039007, “Structure-based identification of OATP1B1/3 inhibitors” (Mol Pharmacol, 2013).

Structures are written as SMILES.

Data set [1] has as its target T1, Solute carrier organic anion transporter family member 1B1 (Homo sapiens, UniProt Q9Y6L6).
T1 sequence (Q9Y6L6 whole entry): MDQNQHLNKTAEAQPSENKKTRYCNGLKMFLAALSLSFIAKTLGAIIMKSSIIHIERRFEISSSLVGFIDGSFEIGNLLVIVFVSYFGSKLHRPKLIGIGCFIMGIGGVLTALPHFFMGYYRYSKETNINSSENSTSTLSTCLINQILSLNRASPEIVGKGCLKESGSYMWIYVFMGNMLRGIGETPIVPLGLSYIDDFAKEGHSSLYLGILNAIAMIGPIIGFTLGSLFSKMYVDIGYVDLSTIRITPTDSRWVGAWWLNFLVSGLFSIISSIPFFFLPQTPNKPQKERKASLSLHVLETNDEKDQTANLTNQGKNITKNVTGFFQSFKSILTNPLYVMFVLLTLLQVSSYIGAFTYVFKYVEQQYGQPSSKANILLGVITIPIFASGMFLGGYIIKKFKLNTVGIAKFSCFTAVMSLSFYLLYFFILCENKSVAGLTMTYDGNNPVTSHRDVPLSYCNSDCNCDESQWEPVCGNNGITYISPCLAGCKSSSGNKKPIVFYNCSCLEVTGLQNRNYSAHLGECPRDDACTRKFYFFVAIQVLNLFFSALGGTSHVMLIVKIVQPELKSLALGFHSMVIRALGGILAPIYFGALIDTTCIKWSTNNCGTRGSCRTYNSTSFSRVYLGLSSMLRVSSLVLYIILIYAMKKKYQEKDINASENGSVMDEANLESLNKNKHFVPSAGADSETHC
The following applies: chinese hamster, cho, 10 µM.

For data set [2], the target named is T2, Solute carrier organic anion transporter family member 1B3 (Homo sapiens, UniProt Q9NPD5).
T2 sequence (Q9NPD5 whole entry): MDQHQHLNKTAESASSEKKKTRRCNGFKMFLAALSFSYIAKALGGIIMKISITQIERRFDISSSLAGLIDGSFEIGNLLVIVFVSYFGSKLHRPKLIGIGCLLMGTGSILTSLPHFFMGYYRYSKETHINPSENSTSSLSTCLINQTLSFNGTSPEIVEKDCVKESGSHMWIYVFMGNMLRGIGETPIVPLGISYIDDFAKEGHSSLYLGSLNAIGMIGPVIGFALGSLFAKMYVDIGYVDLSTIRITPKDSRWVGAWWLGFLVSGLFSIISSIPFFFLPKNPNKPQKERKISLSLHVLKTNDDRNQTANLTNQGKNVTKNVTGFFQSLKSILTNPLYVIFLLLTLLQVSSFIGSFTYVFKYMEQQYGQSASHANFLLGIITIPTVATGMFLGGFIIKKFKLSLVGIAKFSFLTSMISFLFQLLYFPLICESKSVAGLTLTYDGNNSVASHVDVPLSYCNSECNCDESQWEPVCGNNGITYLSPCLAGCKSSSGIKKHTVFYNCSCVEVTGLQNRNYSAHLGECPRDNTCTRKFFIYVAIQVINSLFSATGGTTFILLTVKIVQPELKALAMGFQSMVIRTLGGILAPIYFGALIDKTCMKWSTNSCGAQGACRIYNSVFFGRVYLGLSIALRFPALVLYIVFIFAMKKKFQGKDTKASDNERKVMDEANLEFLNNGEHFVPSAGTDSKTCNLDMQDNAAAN
The settings on record: chinese hamster, cho, 10 µM.

What is called residual activity is the signal under treatment as a percentage of the control signal.

Take `CC1(C)C[C@@H]2[C@H]1CC[C@]1(C)C[C@@]2(O)CC[C@H]1O`: the residual activity in data set [1] is 81.35%; in data set [2], 87.7%.
On the same counts, the results for `C=C(C)[C@@H]1[C@H]2OC(=O)[C@@H]1[C@]1(O)C[C@H]3O[C@]34C(=O)O[C@H]2[C@]14C` [PICROTOXININ] are 102.7% and 101.9%.
On the same counts, the results for `Cc1ccc(/N=C/N(C)/C=N/c2ccc(C)cc2C)c(C)c1` [AMITRAZ] are 108.2% and 87.86%.
For `CC1=CC2C(C(C)C)CC[C@@](C)(O)C2CC1` (some centres undefined), the residual activity in data set [1] amounted to 80.24%; in data set [2], 88.94%.
On the same counts, the results for `NC(=O)NCC(N)C(=O)O` (centres undefined) [ALBIZZIINE] are 118.1% and 110.8%.
On the same counts, the results for `CC(C)=CCc1c2c(c3occ(-c4ccc(O)cc4)c(=O)c3c1O)C=CC(C)(C)O2` [OSAJIN] are 112.9% and 88.68%.
Consider `Cc1occc(=O)c1O` [MALTOL], for which the residual activity is given as 79.28% in data set [1] and 74.61% in data set [2].
On the same counts, the results for `CN1C(=O)CC[C@H]1c1cccnc1` [COTININE] are 106.5% and 103%.
On the same counts, the results for `COC(=O)CCCOc1ccc(Cl)cc1Cl` are 118.1% and 115.5%.
Consider `COc1c(O)cc(O)cc1O` [IRETOL], for which the residual activity in data set [1] is given as 89.16%; in data set [2], 111.8%.
On the same counts, the results for `CCCCCC(C)N.O=S(=O)(O)O` (centres undefined) are 70.88% and 90.66%.
On the same counts, the results for `CCCCCNC(=N)N/N=C/c1c[nH]c2ccc(OC)cc12.O=C(O)/C=C\C(=O)O` [TEGASEROD MALEATE] are 73.16% and 112.9%.
With `C=CC(C1=CC(=O)C(OC)=CC1=O)c1ccc(OC)cc1` (centres undefined) [4,4'-DIMETHOXYDALBERGIONE], the figures for the residual activity in data set [1] and in data set [2] were 116.4% and 101.4%, respectively.
For `COc1cccc2c1CCC1CC(=O)CC[C@]21C` (some centres undefined) [14-METHOXY-4,4-BISNOR-8,11,13-PODOCARPATRIEN-3-ONE], the residual activity in data set [1] stood at 118%; in data set [2], 100.9%.
For `O=C(O)c1cn(C2CC2)c2cc(N3CCNCC3)c(F)cc2c1=O` [CIPROFLOXACIN], the results for the residual activity in data set [1] and in data set [2] were 105.3% and 112.4%, respectively.
On the same counts, the results for `C[C@H]1[C@H]2CC[C@H]3[C@@H]4CC=C5C[C@@H](N(C)C)CC[C@]5(C)[C@H]4CC[C@]23CN1C` [CONESSINE] are 100.9% and 111.5%.
Regarding `Cl.O=C(COc1ccc(Cl)cc1)N1CCN(Cc2ccc3c(c2)OCO3)CC1` [FIPEXIDE HYDROCHLORIDE], the residual activity in data set [1] worked out at 103.1%; in data set [2], 95%.
Turning to `CNC(=N)NCCC[C@H](N)C(=O)O` [TILARGININE], the values for the residual activity in data set [1] and in data set [2] were 94.97% and 97.33%, respectively.
On the same counts, the results for `COC(=O)/C(=C1/OC(=O)C(c2ccccc2)=C1O)c1ccccc1` [VULPINIC ACID] are 57.14% and 83.34%.
On the same counts, the results for `C[C@@H]1O[C@@H](O[C@H]2[C@H](O[C@H]3CC[C@@]4(C)[C@@H](CC[C@]5(C)[C@@H]4CC=C4[C@@H]6CC(C)(C)CC[C@]6(C(=O)O[C@@H]6O[C@H](CO[C@@H]7O[C@H](CO)[C@@H](O[C@@H]8O[C@@H](C)[C@H](O)[C@@H](O)[C@H]8O)[C@H](O)[C@H]7O)[C@@H](O)[C@H](O)[C@H]6O)CC[C@]45C)[C@]3(C)CO)OC[C@H](O)[C@@H]2O)[C@H](O)[C@H](O)[C@H]1O` [KALOPANAXSAPONIN B] are 127.7% and 109.8%.
On the same counts, the results for `Cc1cc(=O)n(-c2ccccc2)n1C` [ANTIPYRINE] are 79.71% and 82.49%.
Regarding `C[C@@H]1C(=O)O[C@H]2[C@H]1CC[C@@]1(C)C=CC(=O)[C@@]3(C)O[C@@]213` [EPOXY (4,5alpha)-4,5-DIHYDROSANTONIN], the results for the residual activity in data set [1] and in data set [2] were 91.53% and 88.69%, respectively.
On the same counts, the results for `Cc1cc(O)c2c(c1O)C(=O)c1c(O)cc(C)c(O)c1C2=O` [1,4,5,8-TETRAHYDROXY-2,6-DIMETHYLANTHROQUINONE] are 102.7% and 105.2%.
With `CN(C)[C@@H]1C(O)=C(C(N)=O)C(=O)[C@@]2(O)C(O)=C3C(=O)c4c(O)ccc(Cl)c4[C@@](C)(O)[C@H]3C[C@@H]12.Cl` [CHLORTETRACYCLINE HYDROCHLORIDE], the residual activity in data set [1] came out at 128.8%; in data set [2], 95.91%.
For the compound `COc1c(O)cc2c(c1O)[C@@H]1O[C@H](CO)[C@@H](O)[C@H](O)[C@H]1OC2=O` [BERGENIN], the results for the residual activity in data set [1] and in data set [2] were 14.59% and 94.52%, respectively.
As for `COc1ccc(-c2coc3cc(O)ccc3c2=O)c(OC)c1O` [KHRINONE E], the residual activity turned out to be 85.61% in data set [1] and 96.23% in data set [2].
As for `O=C(O)c1cc(O)c2c(c1)[C@H]([C@H]1c3cc(C(=O)O)cc(O)c3C(=O)c3c(O[C@@H]4O[C@H](CO)[C@@H](O)[C@H](O)[C@H]4O)cccc31)c1cccc(O[C@@H]3O[C@H](CO)[C@@H](O)[C@H](O)[C@H]3O)c1C2=O` [Sennoside A], the figures for the residual activity in data set [1] and in data set [2] were 122.9% and 111.1%, respectively.
Turning to `C[C@@H]1[C@H](O)[C@@H](C)/C=C/C=C/C=C/C=C/C=C/C=C/C=C/[C@H](O[C@@H]2O[C@H](C)[C@@H](O)[C@H](N)[C@@H]2O)C[C@@H]2O[C@](O)(C[C@@H](O)C[C@@H](O)[C@H](O)CC[C@@H](O)C[C@@H](O)CC(=O)O[C@H]1C)C[C@H](O)[C@H]2C(=O)O` [AMPHOTERICIN B], the residual activity in data set [1] is on record as 89.01%; in data set [2] it was 99.53%.
Consider `COC(=O)C[C@H]1C(C)(C)[C@]2(Cl)O[C@@]34CC2C(=O)[C@]1(C)C3CC[C@]1(C)C4=CC(=O)O[C@H]1c1ccoc1` (some centres undefined), for which the residual activity in data set [1] amounted to 68.86%; in data set [2], 88.12%.
On the same counts, the results for `CC[C@H]1OC(=O)[C@H](C)[C@@H](O[C@H]2C[C@@](C)(OC)[C@@H](O)[C@H](C)O2)[C@H](C)[C@@H](O[C@@H]2O[C@H](C)C[C@H](N(C)C)[C@H]2O)[C@](C)(O)C[C@@H](C)[C@@H]2N[C@@H](COCCOC)O[C@H]([C@H]2C)[C@]1(C)O` [DIRITHROMYCIN] are 109.1% and 95.43%.
On the same counts, the results for `C[C@H](CCC(=O)O)[C@H]1CC[C@H]2[C@@H]3CC[C@@H]4CC(=O)CC[C@]4(C)[C@H]3C=C[C@]12C` are 40.37% and 203.2%.
Regarding `CC(Oc1ccccc1)C(=O)N[C@@H]1C(=O)N2[C@@H]1SC(C)(C)[C@@H]2C(=O)[O-].[K+]` (some centres undefined) [PHENETHICILLIN POTASSIUM], the residual activity in data set [1] is reported as 83.14%; in data set [2], 90.72%.
On the same counts, the results for `Nc1ncnc2c1ncn2[C@@H]1O[C@H](COP(=O)(O)O)[C@@H](O)[C@H]1O` [ADENOSINE PHOSPHATE] are 91.52% and 90.72%.
Turning to `Cc1ccc(C(C)C)cc2c(C)ccc1-2` [GUAIAZULEN], the residual activity in data set [1] amounted to 49.11%; in data set [2], 50.28%.
In the case of `CNC[C@H](O)c1cccc(O)c1.Cl` [PHENYLEPHRINE HYDROCHLORIDE], the residual activity came out at 91.9% in data set [1] and 106.2% in data set [2].
On the same counts, the results for `O=C(/C=C/C=C/c1ccc2c(c1)OCO2)N1CCCCC1` [PIPERINE] are 186.2% and 97.82%.
With `COc1ccc2c(c1OC)OC[C@@H](c1ccc(OC)c(OC)c1OC)C2` [DUARTIN, DIMETHYL ETHER], the residual activity in data set [1] was found to be 113.2%; in data set [2], 110.8%.
